The test system of test [1] is TLR9+CXCL4-activated human plasmacytoid dendritic cells (pDCs). The test can be described thus: IFN-α secretion (ELISA) by purified pDCs activated with CpG-B (TLR9 ligand) + CXCL4. Conditions: CXCL4 present. It counts as cell-based. The method, then: (§1) PBMCs were prepared using Ficoll-Paque density gradient from fresh blood under internal Institutional Review Board-approved protocols. pDCs were isolated as previously described (Guiducci et al. 2008) using either using negative depletion (Miltenyi Biotech) or following cell sorting using a […]. All BDCA4+ cells also express BDCA2 (results not shown). As a result, pure pDCs were obtained and no markers for neutrophils (CD66) or myeloid cells were found by PCR.
(§2) For the TLR9 activation in pDCs, the cells were incubated in complete media alone, or CpG-B 1018 (0.25 or 1 μM), or CpG-C 274 at similar concentrations. In some assays, cells were also incubated with 10 μg/ml CXCL4 (R&D systems).
(§3) Supernatant from B cells and pDCs 24 hour culture was used for quantification of secreted IFNα with the use of an enzyme-linked immunosorbent assay (ELISA) (Mabtech) performed according to the manufacturer's protocol.
(§4) Data were analyzed using a Mann-Whitney U-test (t test using non parametric criteria for independent samples). Comparisons between PBMC and pDCs-depleted PBMC were tested using a parametric paired t-test. All analyses were performed using Prism software (GraphPad Software). Differences were considered significant at a P level less than 0.05 with *p<0.05; **p<0.01; ***p<0.001.
On the technique in general: An ELISA detects its analyte on a solid surface through an enzyme-linked reagent.

In test [2] the test system is TLR9-activated human plasmacytoid dendritic cells (pDCs). As to the kind of experiment: IFN-α secretion (ELISA) by purified pDCs activated with TLR9 ligand alone (CpG1018 / CpG C274). The settings on record: without CXCL4; various dilutions. It counts as cell-based. The method, then:
as §1, §2, §3, §4

Regarding `CC(=O)N[C@H]1[C@H]([C@H](O)[C@H](O)CO)O[C@@](O)(C(=O)O)C[C@@H]1O` [N-Acetylneuraminic acid, 5-(acetylamino)-3,5-dideoxy-D-glycero-α-D-galacto-non-2-ulopyranosonic acid], in test [1], the “inhibitory effect on TLR9-activated pDCs, IFN-α production relative to CpG-CXCL4” value is “significant inhibitory effect”. Besides, the “inhibitory effect on TLR9-activated pDCs, IFN-α production relative to the TLR9 agonist CpG C274” value in test [2] was “significant inhibitory effect”.
